This note sets out measurements from ChEMBL document CHEMBL5291721, “A preclinical secondary pharmacology resource illuminates target-adverse drug reaction associations of marketed drugs” (Nat Commun, 2023).

The target of one assay is T1, B2 bradykinin receptor (Homo sapiens, UniProt P30411).
T1 sequence (P30411 whole entry): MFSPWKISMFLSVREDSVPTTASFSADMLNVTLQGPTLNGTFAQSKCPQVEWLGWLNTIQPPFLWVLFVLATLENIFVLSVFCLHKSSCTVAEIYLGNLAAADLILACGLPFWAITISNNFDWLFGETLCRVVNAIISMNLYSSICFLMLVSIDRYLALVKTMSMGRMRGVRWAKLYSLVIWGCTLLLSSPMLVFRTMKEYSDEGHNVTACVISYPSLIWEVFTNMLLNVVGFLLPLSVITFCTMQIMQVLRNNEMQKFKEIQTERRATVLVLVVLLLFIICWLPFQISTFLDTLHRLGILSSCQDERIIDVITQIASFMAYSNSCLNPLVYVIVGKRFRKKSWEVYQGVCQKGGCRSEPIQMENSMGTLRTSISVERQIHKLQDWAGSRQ

In a further assay the target is Adenosine receptor A2a (Homo sapiens, UniProt P29274).
Adenosine receptor A2a, sequence (P29274 whole entry): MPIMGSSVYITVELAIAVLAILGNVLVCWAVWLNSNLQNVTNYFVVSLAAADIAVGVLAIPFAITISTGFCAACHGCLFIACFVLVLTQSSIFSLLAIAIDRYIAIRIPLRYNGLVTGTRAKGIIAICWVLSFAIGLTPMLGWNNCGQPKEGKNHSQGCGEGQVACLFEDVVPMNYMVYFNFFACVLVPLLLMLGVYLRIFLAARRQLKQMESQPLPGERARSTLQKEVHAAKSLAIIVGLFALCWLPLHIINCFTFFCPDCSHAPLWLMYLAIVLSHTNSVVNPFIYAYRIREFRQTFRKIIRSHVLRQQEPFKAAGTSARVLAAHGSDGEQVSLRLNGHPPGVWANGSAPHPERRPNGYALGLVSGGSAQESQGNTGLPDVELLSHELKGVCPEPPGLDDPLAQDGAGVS
Assay [1] has as its target Gamma-aminobutyric acid receptor subunit alpha-1 (Rattus norvegicus, UniProt P62813).
In assay [2] the target is T2, Equilibrative nucleoside transporter 1 (Homo sapiens, UniProt Q99808).
T2 sequence (Q99808 whole entry): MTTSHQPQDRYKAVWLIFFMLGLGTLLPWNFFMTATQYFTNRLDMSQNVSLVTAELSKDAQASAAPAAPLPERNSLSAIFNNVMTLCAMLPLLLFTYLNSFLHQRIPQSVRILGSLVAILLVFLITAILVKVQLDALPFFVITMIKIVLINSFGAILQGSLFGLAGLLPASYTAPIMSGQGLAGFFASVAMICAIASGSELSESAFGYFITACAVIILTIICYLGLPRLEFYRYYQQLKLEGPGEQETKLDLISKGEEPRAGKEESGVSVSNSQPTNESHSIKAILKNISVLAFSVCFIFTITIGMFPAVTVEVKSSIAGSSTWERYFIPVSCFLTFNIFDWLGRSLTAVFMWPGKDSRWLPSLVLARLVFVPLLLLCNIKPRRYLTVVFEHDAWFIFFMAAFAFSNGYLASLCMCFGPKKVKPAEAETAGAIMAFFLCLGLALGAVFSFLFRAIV

The target in assay [3] is T3, Muscarinic acetylcholine receptor M2 (Homo sapiens, UniProt P08172).
T3 sequence (P08172 whole entry): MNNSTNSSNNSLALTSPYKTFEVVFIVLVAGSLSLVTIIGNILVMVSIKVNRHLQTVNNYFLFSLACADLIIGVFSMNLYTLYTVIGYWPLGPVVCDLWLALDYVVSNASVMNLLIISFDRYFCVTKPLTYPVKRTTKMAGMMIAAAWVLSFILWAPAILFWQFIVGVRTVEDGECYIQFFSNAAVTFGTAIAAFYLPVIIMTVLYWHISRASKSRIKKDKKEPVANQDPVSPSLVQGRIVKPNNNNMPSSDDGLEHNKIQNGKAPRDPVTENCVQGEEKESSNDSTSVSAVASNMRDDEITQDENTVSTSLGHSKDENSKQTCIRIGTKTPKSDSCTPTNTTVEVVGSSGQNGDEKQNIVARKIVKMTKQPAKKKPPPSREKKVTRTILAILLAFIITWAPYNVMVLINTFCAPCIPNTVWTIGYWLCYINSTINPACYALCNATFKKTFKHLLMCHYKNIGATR
The assay is classed as functional, cell-based.

For assay [4], the target named is T4, Prostaglandin G/H synthase 1 (Rattus norvegicus, UniProt Q63921).
T4 sequence (Q63921 whole entry): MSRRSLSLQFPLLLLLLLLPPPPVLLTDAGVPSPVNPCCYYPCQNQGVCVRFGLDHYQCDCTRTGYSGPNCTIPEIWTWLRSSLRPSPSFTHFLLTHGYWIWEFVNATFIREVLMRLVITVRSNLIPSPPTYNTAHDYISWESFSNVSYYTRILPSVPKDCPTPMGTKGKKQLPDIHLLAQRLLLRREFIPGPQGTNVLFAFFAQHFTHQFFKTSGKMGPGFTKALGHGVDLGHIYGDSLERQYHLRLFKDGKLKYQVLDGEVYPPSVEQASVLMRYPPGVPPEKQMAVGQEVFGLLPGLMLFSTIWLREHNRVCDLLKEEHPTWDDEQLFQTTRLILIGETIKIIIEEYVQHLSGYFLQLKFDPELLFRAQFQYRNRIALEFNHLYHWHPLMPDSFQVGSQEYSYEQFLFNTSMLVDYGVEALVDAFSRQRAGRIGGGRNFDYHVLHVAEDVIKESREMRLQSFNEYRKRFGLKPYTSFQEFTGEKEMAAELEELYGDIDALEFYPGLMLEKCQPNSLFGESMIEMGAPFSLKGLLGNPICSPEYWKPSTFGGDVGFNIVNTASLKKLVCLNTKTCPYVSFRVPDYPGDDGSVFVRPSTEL
The assay is classed as functional.

Assay [5] addresses Beta-2 adrenergic receptor (Homo sapiens, UniProt P07550).
Assay [6] has as its target T3, Muscarinic acetylcholine receptor M2. The assay is classed as functional, cell-based. The source holds these as a separate data set.
Assay [7] concerns the target T5, Alpha-2A adrenergic receptor (Homo sapiens, UniProt P08913).
T5 sequence (P08913 whole entry): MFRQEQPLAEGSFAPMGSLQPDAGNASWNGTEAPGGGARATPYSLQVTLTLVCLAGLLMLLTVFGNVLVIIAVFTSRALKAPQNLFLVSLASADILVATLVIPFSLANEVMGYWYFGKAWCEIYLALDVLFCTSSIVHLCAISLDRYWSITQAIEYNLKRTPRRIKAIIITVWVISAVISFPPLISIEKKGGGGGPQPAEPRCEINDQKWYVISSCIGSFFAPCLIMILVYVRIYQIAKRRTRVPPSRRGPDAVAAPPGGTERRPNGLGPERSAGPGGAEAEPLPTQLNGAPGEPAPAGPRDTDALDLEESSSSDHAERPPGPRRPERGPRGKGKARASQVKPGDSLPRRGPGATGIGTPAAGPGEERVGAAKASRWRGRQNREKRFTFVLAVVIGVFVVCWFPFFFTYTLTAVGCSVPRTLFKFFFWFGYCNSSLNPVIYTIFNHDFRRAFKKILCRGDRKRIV
The assay is classed as functional, cell-based.

The target of another assay is Vasopressin V2 receptor (Homo sapiens, UniProt P30518).
Vasopressin V2 receptor, sequence (P30518 whole entry): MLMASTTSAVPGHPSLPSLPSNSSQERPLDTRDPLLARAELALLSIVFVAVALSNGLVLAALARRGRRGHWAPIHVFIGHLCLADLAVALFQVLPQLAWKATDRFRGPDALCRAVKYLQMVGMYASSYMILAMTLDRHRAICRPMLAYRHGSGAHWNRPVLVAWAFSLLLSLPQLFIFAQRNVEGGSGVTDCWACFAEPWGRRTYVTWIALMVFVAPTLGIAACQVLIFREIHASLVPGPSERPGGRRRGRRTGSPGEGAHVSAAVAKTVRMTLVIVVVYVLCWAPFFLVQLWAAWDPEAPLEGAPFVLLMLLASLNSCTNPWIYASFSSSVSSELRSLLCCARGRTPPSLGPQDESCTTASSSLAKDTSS
Assay [8] concerns the target 5-hydroxytryptamine receptor 2B (Homo sapiens, UniProt P41595). Format: functional, cell-based.

Broadly, the AC50 is the concentration giving half of the maximal activity seen.
Also: assay procedure not described here.

Beta-2 adrenergic receptor, sequence (P07550 whole entry): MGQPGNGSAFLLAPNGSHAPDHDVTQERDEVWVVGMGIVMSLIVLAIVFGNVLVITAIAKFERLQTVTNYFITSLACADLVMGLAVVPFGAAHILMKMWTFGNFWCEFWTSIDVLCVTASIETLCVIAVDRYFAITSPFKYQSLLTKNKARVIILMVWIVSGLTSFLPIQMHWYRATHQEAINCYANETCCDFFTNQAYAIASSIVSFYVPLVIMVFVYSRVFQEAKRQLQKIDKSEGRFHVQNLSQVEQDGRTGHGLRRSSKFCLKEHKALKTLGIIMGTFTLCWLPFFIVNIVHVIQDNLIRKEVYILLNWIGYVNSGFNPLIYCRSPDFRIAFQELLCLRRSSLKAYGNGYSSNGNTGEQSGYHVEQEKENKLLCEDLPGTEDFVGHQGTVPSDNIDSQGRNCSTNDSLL
Gamma-aminobutyric acid receptor subunit alpha-1, sequence (P62813 whole entry): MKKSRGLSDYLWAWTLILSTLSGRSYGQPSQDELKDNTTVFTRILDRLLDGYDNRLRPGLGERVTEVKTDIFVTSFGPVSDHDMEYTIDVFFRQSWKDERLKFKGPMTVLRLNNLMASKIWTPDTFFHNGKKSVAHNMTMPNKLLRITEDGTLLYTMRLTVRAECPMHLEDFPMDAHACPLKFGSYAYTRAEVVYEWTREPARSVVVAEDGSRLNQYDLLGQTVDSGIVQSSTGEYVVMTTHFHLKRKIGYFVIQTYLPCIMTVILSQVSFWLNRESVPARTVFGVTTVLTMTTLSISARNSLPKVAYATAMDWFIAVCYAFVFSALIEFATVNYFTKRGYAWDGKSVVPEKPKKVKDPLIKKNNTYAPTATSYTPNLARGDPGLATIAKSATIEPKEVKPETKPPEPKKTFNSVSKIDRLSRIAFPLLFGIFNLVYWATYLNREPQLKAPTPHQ
5-hydroxytryptamine receptor 2B, sequence (P41595 whole entry): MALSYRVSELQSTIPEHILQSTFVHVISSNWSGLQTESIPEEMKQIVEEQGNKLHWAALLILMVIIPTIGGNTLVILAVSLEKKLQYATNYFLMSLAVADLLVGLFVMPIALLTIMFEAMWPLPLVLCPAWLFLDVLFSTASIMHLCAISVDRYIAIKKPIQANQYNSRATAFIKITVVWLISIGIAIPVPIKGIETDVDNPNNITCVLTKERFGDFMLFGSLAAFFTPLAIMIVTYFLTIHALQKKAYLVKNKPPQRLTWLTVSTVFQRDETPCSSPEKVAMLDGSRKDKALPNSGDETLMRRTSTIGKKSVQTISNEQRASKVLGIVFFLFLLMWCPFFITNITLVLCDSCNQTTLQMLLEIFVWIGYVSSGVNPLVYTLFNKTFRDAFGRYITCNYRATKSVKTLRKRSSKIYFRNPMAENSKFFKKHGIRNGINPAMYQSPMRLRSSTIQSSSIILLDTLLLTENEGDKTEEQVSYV

As for `COc1ccc2c(c1)c(CC(=O)OCC(=O)O)c(C)n2C(=O)c1ccc(Cl)cc1` [ACEMETACIN], the AC50 was greater than 30 µM at B2 bradykinin receptor; greater than 30 µM at Adenosine receptor A2a; greater than 30 µM in assay [1]; greater than 30 µM in assay [2]; greater than 30 µM in assay [3]; 30 µM in assay [4]. Besides, the AC50 (in assay [5]; in [6]; in [7]; on Vasopressin V2 receptor; in assay [8]) was greater than 30 µM in each case.
Take `CC(C)c1c(C(=O)Nc2ccccc2)c(-c2ccccc2)c(-c2ccc(F)cc2)n1CC[C@@H](O)C[C@@H](O)CC(=O)O` [ATORVASTATIN]: the AC50 at B2 bradykinin receptor was greater than 30 µM; on Adenosine receptor A2a, greater than 30 µM; in assay [1], greater than 10 µM; in assay [2], greater than 30 µM; in [4] it was greater than 30 µM; in assay [5], greater than 10 µM. Further, the AC50 in assay [7] is greater than 10 µM; at Vasopressin V2 receptor, greater than 30 µM.
For the molecule `CN1C(=O)COc2c(C(=O)NC3CN4CCC3CC4)cc(Cl)cc21` (configuration not stated) [AZASETRON], the AC50 (on B2 bradykinin receptor; at Adenosine receptor A2a; in assay [1]; in [2]; in assay [3]; in assay [4]) was greater than 30 µM each time. Moreover, the AC50 in [5] was greater than 30 µM; in assay [6], greater than 30 µM; in [7] it was greater than 10 µM; at Vasopressin V2 receptor, greater than 30 µM; in assay [8], greater than 30 µM.
In the case of `Cc1cc2c(OCC(CNC(C)(C)C)OC(=O)c3ccccc3)cccc2[nH]1` (configuration not stated) [BOPINDOLOL], the AC50 at B2 bradykinin receptor was greater than 30 µM; at Adenosine receptor A2a it was greater than 30 µM; in assay [1] it was greater than 30 µM; in assay [2], greater than 30 µM; in assay [3], greater than 30 µM; in assay [4] it was 3.5 µM. Further, the half-maximal activity concentration (AC50) in [5] was 0.0064 µM; in [6], greater than 30 µM; in [7], greater than 30 µM; at Vasopressin V2 receptor, greater than 30 µM; in assay [8] it was greater than 30 µM.
Consider `CCCCN1CCCCC1C(=O)Nc1c(C)cccc1C` (configuration not stated) [BUPIVACAINE], for which the AC50 (on B2 bradykinin receptor; on Adenosine receptor A2a; in assay [1]; in assay [3]; in assay [4]; in [6]) was greater than 30 µM in each case. Also, the concentration at half-maximal activity (AC50) (in assay [7]; at Vasopressin V2 receptor; in assay [8]) was greater than 30 µM throughout.
Consider `CC(C)(Oc1ccc(C2CC2(Cl)Cl)cc1)C(=O)O` (configuration not stated) [CIPROFIBRATE], for which the AC50 (on B2 bradykinin receptor; at Adenosine receptor A2a; in assay [1]; in [2]; in assay [3]; in assay [4]) was greater than 30 µM each time. Further, the AC50 (in [5]; in assay [6]; in assay [7]; on Vasopressin V2 receptor; in [8]) was greater than 30 µM each time.
With `Cc1c(O)c(=O)ccn1C` [DEFERIPRONE], the AC50 on B2 bradykinin receptor is greater than 30 µM; on Adenosine receptor A2a, greater than 30 µM; in [1] it was greater than 30 µM; in [2], greater than 30 µM; in assay [3], greater than 30 µM; in assay [4] it was greater than 3 µM. Besides, the AC50 (in [5]; in assay [6]; in assay [7]; on Vasopressin V2 receptor; in assay [8]) was greater than 30 µM throughout.
With `CCNC(C)Cc1cccc(C(F)(F)F)c1` (configuration not stated) [FENFLURAMINE], the AC50 is greater than 30 µM on B2 bradykinin receptor; greater than 30 µM on Adenosine receptor A2a; greater than 10 µM in assay [1]; greater than 30 µM in assay [2]; greater than 30 µM in [3]; greater than 30 µM in assay [4]. For the same molecule, the AC50 (in [6]; at Vasopressin V2 receptor) was greater than 30 µM each time.
Take `CCN1CCC[C@H]1CNC(=O)c1cc(S(N)(=O)=O)ccc1OC` [LEVOSULPIRIDE]: the AC50 is greater than 30 µM on B2 bradykinin receptor; greater than 30 µM on Adenosine receptor A2a; greater than 10 µM in assay [1]; greater than 10 µM in [3]; greater than 30 µM in assay [4]; greater than 30 µM in assay [5]. Besides, the AC50 in assay [6] was greater than 10 µM; in [7], greater than 10 µM; at Vasopressin V2 receptor, greater than 30 µM; in assay [8], greater than 10 µM.
Turning to `Cc1cccc(C)c1NC(=O)C1CCCCN1C` (configuration not stated) [MEPIVACAINE], the AC50 (on B2 bradykinin receptor; on Adenosine receptor A2a; in assay [2]; in assay [3]; in assay [4]; in [6]) was greater than 30 µM each time. In addition, the AC50 (in assay [7]; at Vasopressin V2 receptor; in assay [8]) was greater than 30 µM in each case.
For `COc1c(C)c2c(c(O)c1C/C=C(\C)CCC(=O)OCCN1CCOCC1)C(=O)OC2` [MYCOPHENOLATE MOFETIL], the concentration at half-maximal activity (AC50) (on B2 bradykinin receptor; on Adenosine receptor A2a; in assay [1]; in assay [2]; in [3]; in assay [5]) was greater than 30 µM each time. Also, the AC50 (in assay [6]; in assay [7]; on Vasopressin V2 receptor; in assay [8]) was greater than 30 µM in each case.
For the molecule `CCCOc1ccc(C(=O)OCCN(CC)CC)cc1N` [PROPARACAINE], the AC50 at B2 bradykinin receptor is greater than 30 µM; at Adenosine receptor A2a, greater than 30 µM; in assay [2], greater than 30 µM; in [3], greater than 30 µM; in [4], 0.75 µM; in assay [6], greater than 30 µM. Moreover, the AC50 (in assay [7]; on Vasopressin V2 receptor; in assay [8]) was greater than 30 µM in each case.
For the molecule `Nc1nc2ccc(OC(F)(F)F)cc2s1` [RILUZOLE], the AC50 (on B2 bradykinin receptor; on Adenosine receptor A2a; in assay [2]; in assay [3]; in assay [4]; in [6]) was greater than 30 µM throughout. Further, the AC50 (in assay [7]; at Vasopressin V2 receptor; in [8]) was greater than 30 µM each time.
